The record followed here is US20210255193A1, “LYSINE REACTIVE PROBES AND USES THEREOF” (The Scripps Research Institute, priority 2017, published 2021).

Common to all, as to test: competitive isoTOP-ABPP
Format in all cases: binding

Assay [1] has as its target T1, POLR2L DNA-directed RNA polymerases I, II, and III subunit (Homo sapiens, UniProt P62875).
T1 construct: isoTOP-ABPP experiments performed in cell lysates (in vitro); endogenous in cells; host or cells: soluble proteome of human cancer cell lines (MDA-MB-231, Ramos, Jurkat)
Particulars: for R value (DMSO/fragment) for probe 1 labeling: P62875_K67, 50 uM, 231 sol, in vitro; for isoTOP-ABPP ratio, lysine P62875_K67: 50 uM_231_sol_in vitro. The procedure: (§1) In vitro covalent fragment treatment for isoTOP-ABPP. All compounds were made up as solutions in DMSO (100×) and were used at a final concentration of 50 μM for activated esters and 100 μM for guanidinylating agents. For each profiling sample, 0.5 ml of lysate was treated with 5 μl of the 100× compound stock solution or 5 μl of DMSO. Samples were treated with activated esters for
(§2) STP-alkyne labeling and click chemistry. For concentration-dependent reactivity measurements by isoTOP-ABPP, 0.5 ml proteome aliquots were treated at ambient temperature with 1 mM STP-alkyne 1 (5 μl of 100 mM stock in DMSO) and 0.1 mM STP alkyne 1 (5 μl of 10 mM stock in DMSO), respectively. For competitive isoTOP-ABPP, after in vitro fragment treatment (detailed above), the samples were labeled for 1 h at ambient temperature with 0.1 mM STP-alkyne 1 (5 μl of 10 mM stock in DMSO). Samples were conjugated by copper-mediated azide-alkyne cycloaddition (CuAAC) to either the light (1 mM STP-alkyne or fragment treated) or heavy (0.1 mM STP-alkyne or DMSO treated) TEV tags (10 μl of 5 mM stocks in DMSO, final concentration=100 μM) using tris(2-carboxyethyl)phosphine hydrochloride
(§3) R value calculation and processing. The ratios of light and heavy MS1 peaks for each unique peptide were quantified with a CIMAGE software using default parameters (3 MS1 acquisitions per peak and signal to noise threshold set to 2.5). For reactivity measurements by isoTOP-ABPP, the R value was calculated from the ratio of MS1 peak areas, comparing the 1 mM STP alkyne sample (light TEV tag) with the 0.1 mM STP alkyne sample (heavy TEV tag). For competitive isoTOP-ABPP, the R value was calculated from the ratio of MS1 peak areas, comparing the DMSO treated sample (heavy TEV tag) with the compound treated sample (light TEV tag). […] Ratios for unique peptide entries are calculated for each experiment; overlapping peptides with the same modified lysine (for example, different charge states, MudPIT chromatographic steps or tryptic termini) are grouped together and the median ratio is reported as the final ratio (R). The peptide ratios reported by CIMAGE were further filtered to ensure the removal or correction of low-quality ratios in each individual data set. The quality filters applied were the following: removal of half tryptic peptides; for ratios with high standard deviations from the median (90% of the median or above) the lowest ratio was taken instead of the median; removal of peptides with R=20 and only a single MS2 event triggered during the elution of the parent ion; manual annotation of all the peptides with ratios of 20, removing any peptides with low quality elution profiles that remained after the previous curation steps (only done for competitive isoTOP-ABPP).
(§4) Cross-data processing for fragment screening. For compound treated samples, biological replicates of the same condition were averaged, if the standard deviation was below 60% of the mean; otherwise, for lysines with at least one R value <4 for a particular compound, the lowest value of the ratio set was taken. For lysines, where all R values for a particular compound were ≥4, the average was reported. For peptides containing several possible modified lysines, the lysine with the highest number of quantification events was used for analysis and the remaining, redundant peptides were reported as alternative modification sites. Peptides included in the aggregate dataset (those used for further bioinformatics and statistical analyses) were required to have been quantified in 2 experiments for competitive isoTOP-ABPP. Lysines were categorized as liganded, if they had at least one ratio R≥4 (hit fragments). For liganded lysines with R=20 for all liganding events, lysines were required to have been quantified with R=20 in two separate experiments and were further required to have been quantified with R<20 in one additional experiment.

In assay [2] the target is T2, NUDT2 Bis(5-nucleosyl)-tetraphosphatase (Homo sapiens, UniProt P50583).
T2 construct: isoTOP-ABPP experiments performed in cell lysates (in vitro); endogenous in cells
T2 sequence (P50583 whole entry): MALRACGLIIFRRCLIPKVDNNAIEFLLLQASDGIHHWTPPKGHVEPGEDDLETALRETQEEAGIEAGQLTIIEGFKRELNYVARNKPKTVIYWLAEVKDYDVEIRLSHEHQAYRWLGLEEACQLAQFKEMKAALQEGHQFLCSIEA
Further details: key to isoTOP-ABPP reactivity ratio at lysine P50583_K89: R = MS1 peak area ratio, DMSO (heavy) / compound-treated (light). Particulars: for R value (DMSO/fragment) for probe 1 labeling: P50583_K89; for isoTOP-ABPP ratio, lysine P50583_K89: possible other lysine P50583_K87. The procedure: as §1, §2, §3, §4

The target in assay [3] is T3, SRP54 Signal recognition particle 54 kDa protein (Homo sapiens, UniProt P61011).
T3 construct: isoTOP-ABPP experiments performed in cell lysates (in vitro); endogenous in cells; host or cells: soluble proteome of human cancer cell lines (MDA-MB-231, Ramos, Jurkat)
T3 sequence (P61011 whole entry): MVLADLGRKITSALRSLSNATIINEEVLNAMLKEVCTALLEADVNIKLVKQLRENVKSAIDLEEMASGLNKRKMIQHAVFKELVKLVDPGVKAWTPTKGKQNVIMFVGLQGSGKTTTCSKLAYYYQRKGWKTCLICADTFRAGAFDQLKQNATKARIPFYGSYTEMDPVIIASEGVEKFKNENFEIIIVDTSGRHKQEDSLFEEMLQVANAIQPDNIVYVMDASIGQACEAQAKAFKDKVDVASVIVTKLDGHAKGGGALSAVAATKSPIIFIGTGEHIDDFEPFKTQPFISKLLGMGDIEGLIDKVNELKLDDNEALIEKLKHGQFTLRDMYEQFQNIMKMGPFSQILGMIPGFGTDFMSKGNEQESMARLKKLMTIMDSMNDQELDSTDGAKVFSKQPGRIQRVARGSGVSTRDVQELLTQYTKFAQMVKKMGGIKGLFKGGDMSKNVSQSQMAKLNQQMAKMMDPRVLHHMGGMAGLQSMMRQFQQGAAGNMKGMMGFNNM
Also noted: key to isoTOP-ABPP reactivity ratio at lysine P61011_K81: R = MS1 peak area ratio, DMSO (heavy) / compound-treated (light); capped at 20. As to conditions: for R value (DMSO/fragment) for probe 1 labeling: P61011_K81. The procedure:
as §1, §2, §3, §4

The target of assay [4] is T4, PSME3 Proteasome activator complex subunit 3 (Homo sapiens, UniProt P61289).
T4 construct: isoTOP-ABPP experiments performed in cell lysates (in vitro); endogenous in cells; host or cells: soluble proteome of human cancer cell lines (MDA-MB-231, Ramos, Jurkat)
T4 sequence (P61289 whole entry, one chain of several): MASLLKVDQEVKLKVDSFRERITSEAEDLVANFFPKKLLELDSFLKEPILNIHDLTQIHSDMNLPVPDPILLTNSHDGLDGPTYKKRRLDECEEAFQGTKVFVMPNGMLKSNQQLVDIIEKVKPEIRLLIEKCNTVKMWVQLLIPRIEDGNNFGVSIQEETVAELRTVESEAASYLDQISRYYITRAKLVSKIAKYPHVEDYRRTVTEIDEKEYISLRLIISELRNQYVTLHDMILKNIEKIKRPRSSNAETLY
Further details: key to isoTOP-ABPP reactivity ratio at lysine P61289_K237: R = MS1 peak area ratio, DMSO (heavy) / compound-treated (light); key to isoTOP-ABPP reactivity ratio at lysine P61289_K12: R = MS1 peak area ratio, DMSO (heavy) / compound-treated (light); capped at 20. The procedure: as §1, §2, §3, §4

For assay [5], the target named is T5, MAP1LC3B Microtubule-associated proteins 1A/1B light chain (Homo sapiens, UniProt Q9GZQ8).
T5 construct: isoTOP-ABPP experiments performed in cell lysates (in vitro); endogenous in cells; host or cells: soluble proteome of human cancer cell lines (MDA-MB-231; Ramos and Jurkat also prepared)
Also noted: key to isoTOP-ABPP reactivity ratio at lysine Q9GZQ8_K51: R = MS1 peak area ratio, DMSO (heavy) / compound-treated (light). The procedure:
as §1, §2, §3, §4

Assay [6] deals with T6, ACBD3 Golgi resident protein GCP60 (Homo sapiens, UniProt Q9H3P7).
T6 construct: isoTOP-ABPP experiments performed in cell lysates (in vitro); endogenous in cells; host or cells: soluble proteome of human cancer cell lines (MDA-MB-231; Ramos and Jurkat also prepared)
T6 sequence (Q9H3P7 1-528): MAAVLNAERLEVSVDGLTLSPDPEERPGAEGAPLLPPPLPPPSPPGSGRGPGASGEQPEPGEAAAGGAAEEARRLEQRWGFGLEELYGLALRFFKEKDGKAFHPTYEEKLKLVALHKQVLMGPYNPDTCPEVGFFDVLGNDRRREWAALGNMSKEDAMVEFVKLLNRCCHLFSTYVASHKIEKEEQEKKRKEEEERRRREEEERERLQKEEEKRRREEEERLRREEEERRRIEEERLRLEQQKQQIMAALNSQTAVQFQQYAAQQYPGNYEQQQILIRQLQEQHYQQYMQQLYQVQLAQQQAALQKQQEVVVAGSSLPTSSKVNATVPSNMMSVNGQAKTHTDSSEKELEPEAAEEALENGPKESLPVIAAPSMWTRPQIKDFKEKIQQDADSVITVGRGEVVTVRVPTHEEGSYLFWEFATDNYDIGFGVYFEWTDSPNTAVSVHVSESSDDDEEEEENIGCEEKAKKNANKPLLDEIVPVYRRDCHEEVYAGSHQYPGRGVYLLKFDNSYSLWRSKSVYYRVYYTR
Further details: key to isoTOP-ABPP reactivity ratio at lysine Q9H3P7_K117: R = MS1 peak area ratio, DMSO (heavy) / compound-treated (light). As to conditions: for R value (DMSO/fragment) for probe 1 labeling: Q9H3P7_K117. The procedure:
as §1, §2, §3, §4

The mark [7] stands for this setting: P61289_K12, 50 uM, 231 sol, in vitro.
The mark [8] stands for this setting: P61289_K237, 50 uM, 231 sol, in vitro.

In the case of `O=C(Oc1c(F)c(F)c(F)c(F)c1F)C(c1ccccc1)c1ccccc1` [fragment 20, Pentafluorophenyl 2,2-diphenylacetate], the “R value (DMSO/fragment) for probe 1 labeling” value (“R value (DMSO/fragment)” for short) is 0.9 in assay [1]; 0.9 in assay [2] (50 uM, 231 sol, in vitro); 1.0 in assay [3] (50 uM, 231 sol, in vitro); 0.9 in assay [4] (setting [7]); 0.9 in assay [4] (setting [8]); 0.9 in assay [5] (Q9GZQ8_K51, 50 uM, 231 sol, in vitro). Also, the “R value (DMSO/fragment)” value in assay [6] (50 uM, 231 sol, in vitro) is 1.2.

Turning to `O=C(Oc1c(F)c(F)c(F)c(F)c1F)c1cc(C(F)(F)F)cc(C(F)(F)F)c1` [fragment 21, Pentafluorophenyl 3,5-bis(trifluoromethyl)benzoate], the “R value (DMSO/fragment)” value in assay [1] was 0.8; in assay [2] (50 uM, 231 sol, in vitro), 0.9; in assay [3] (50 uM, 231 sol, in vitro), 0.7; in assay [4] (setting [7]), 1.0; in assay [4] (setting [8]) it was 0.9; in assay [6] (50 uM, 231 sol, in vitro) it was 0.9.

As for `COc1cc(CCC(=O)Oc2ccc([N+](=O)[O-])cc2[N+](=O)[O-])cc(OC)c1OC` [fragment 33, 2,4-Dinitrophenyl 3-(3,4,5-trimethoxyphenyl)propanoate], the “isoTOP-ABPP reactivity ratio at lysine P50583_K89” value in assay [2] (50 uM, 231 sol, in vitro) was found to be 1.9. Besides, in assay [3] (50 uM, 231 sol, in vitro), the “isoTOP-ABPP reactivity ratio at lysine P61011_K81” value was 1.3. Further, in assay [4] (50 uM, 231 sol, in vitro), the “isoTOP-ABPP reactivity ratio at lysine P61289_K12” value came out at 2.1 and the “isoTOP-ABPP reactivity ratio at lysine P61289_K237” value came to 1.1. Moreover, the “isoTOP-ABPP reactivity ratio at lysine Q9GZQ8_K51” value in assay [5] (50 uM, 231 sol, in vitro) was 0.8. The “isoTOP-ABPP reactivity ratio at lysine Q9H3P7_K117” value in assay [6] (50 uM, 231 sol, in vitro) was determined as 1.1.

Regarding `N#Cc1ccc(C(=O)Oc2ccc([N+](=O)[O-])cc2[N+](=O)[O-])cc1` [fragment 44, 2,4-Dinitrophenyl 4-cyanobenzoate], in assay [1], the “isoTOP-ABPP ratio, lysine P62875_K67” value was found to be 1.0. The “isoTOP-ABPP ratio, lysine P50583_K89” value in assay [2] (50 uM_231_sol_in vitro) is reported as 0.9. Further, in assay [3] (50 uM_231_sol_in vitro), the “isoTOP-ABPP ratio, lysine P61011_K81” value is listed as 1.0. In addition, the “isoTOP-ABPP ratio, lysine Q9GZQ8_K51” value in assay [5] (50 uM_231_sol_in vitro) worked out at 0.9. In addition, the “isoTOP-ABPP ratio, lysine Q9H3P7_K117” value in assay [6] (50 uM_231_sol_in vitro) is 0.8.

As for `O=C(ON1C(=O)CCC1=O)c1cc(C(F)(F)F)cc(C(F)(F)F)c1` [fragment 46, 3,5-Bis(trifluoromethyl)benzoic acid NHS ester], the “isoTOP-ABPP ratio, lysine P62875_K67” value in assay [1] came to 1.0. Further, in assay [2] (50 uM_231_sol_in vitro), the “isoTOP-ABPP ratio, lysine P50583_K89” value came to 1.1. For the same molecule, the “isoTOP-ABPP ratio, lysine P61011_K81” value in assay [3] (50 uM_231_sol_in vitro) stood at 0.9. In assay [4] (50 uM_231_sol_in vitro), the “isoTOP-ABPP ratio, lysine P61289_K12” value was 0.7 and the “isoTOP-ABPP ratio, lysine P61289_K237” value was determined as 0.9. For the same molecule, the “isoTOP-ABPP ratio, lysine Q9H3P7_K117” value in assay [6] (50 uM_231_sol_in vitro) stood at 7.7.

In the case of `O=C(Oc1c(F)c(F)cc(F)c1F)c1cc(C(F)(F)F)cc(C(F)(F)F)c1` [fragment 48, 2,3,5,6-Tetrafluorophenyl 3,5-bis(trifluoromethyl)benzoate], the “isoTOP-ABPP ratio, lysine P62875_K67” value in assay [1] came to 0.9. Further, the “isoTOP-ABPP ratio, lysine P50583_K89” value in assay [2] (50 uM_231_sol_in vitro) is 1.0. Besides, the “isoTOP-ABPP ratio, lysine P61011_K81” value in assay [3] (50 uM_231_sol_in vitro) worked out at 1.1. In assay [5] (50 uM_231_sol_in vitro), the “isoTOP-ABPP ratio, lysine Q9GZQ8_K51” value is recorded as 0.8. In addition, the “isoTOP-ABPP ratio, lysine Q9H3P7_K117” value in assay [6] (50 uM_231_sol_in vitro) is on record as 0.9.

With `COC(=O)NC(=NC(=O)OCC1c2ccccc2-c2ccccc21)n1cccn1` [fragment 49, N-Methoxycarbonyl-N′-9-fluorenylmethoxycarbonyl-pyrazole-1-carboxamidine], the “isoTOP-ABPP ratio, lysine P50583_K89” value in assay [2] (100 uM_231_sol_in vitro) stood at 20.0. In addition, the “reaction with K89 by isoTOP-ABPP” value in assay [2] (NUDT2 K89) is “preferentially reacting”. Besides, the “isoTOP-ABPP ratio, lysine P61011_K81” value in assay [3] (100 uM_231_sol_in vitro) was determined as 1.0. Further, in assay [4] (100 uM_231_sol_in vitro), the “isoTOP-ABPP ratio, lysine P61289_K12” value turned out to be 0.8 and the “isoTOP-ABPP ratio, lysine P61289_K237” value was 0.8. Moreover, the “isoTOP-ABPP ratio, lysine Q9GZQ8_K51” value in assay [5] (100 uM_231_sol_in vitro) amounted to 1.6. Moreover, in assay [6] (100 uM_231_sol_in vitro), the “isoTOP-ABPP ratio, lysine Q9H3P7_K117” value was determined as 13.9.

For the molecule `NC(=O)c1cc(C(F)(F)F)cc(C(F)(F)F)c1` [fragment 51, reference compound], the “isoTOP-ABPP ratio, lysine P62875_K67” value in assay [1] is 1.0. The “isoTOP-ABPP ratio, lysine P50583_K89” value in assay [2] (50 uM_231_sol_in vitro) was 0.9. Also, the “isoTOP-ABPP ratio, lysine P61011_K81” value in assay [3] (50 uM_231_sol_in vitro) was 0.7. The “isoTOP-ABPP ratio, lysine P61289_K237” value in assay [4] (50 uM_231_sol_in vitro) came out at 0.7. For the same molecule, in assay [6] (50 uM_231_sol_in vitro), the “isoTOP-ABPP ratio, lysine Q9H3P7_K117” value was found to be 0.9.
